Source: patent US20230416262A1, “TRPML MODULATORS” (Casma Therapeutics, Inc., priority 2020, published 2023)

The molecules below were run on TFEB (assay: TFEB nuclear translocation assay). Settings: Homo sapiens; HeLa wt or HeLa TRPML1 KO cells, treated for 2 hrs; ratio of nuclear to ring-region TFEB intensity.
Assay type: cell-based
Description: For the TFEB nuclear translocation assay, HeLa wt or HeLa TRPML1 KO cells were plated at 2700 cells/well into black-walled, 384-well Cell carrier Ultra tissue culture treated plates in complete media and incubated overnight. The next day, cells are treated for 2 hrs with compounds and incubated at 37° C. Cells were then fixed for 30 minutes at room temperature in 4% final PFA and washed five times with 90 μL PBS. PBS is aspirated from the wells and the cells are blocked with 7.5 μL blocking buffer (1.1 PBS/Odyssey block buffer containing 0.1% triton x-100 and 1% goat serum). After 30-60 minutes of block, 7.5 μL of primary anti-TFEB (rabbit) antibody is added for a final dilution of 1:200 antibody in 15 μL blocking buffer. Plates are incubated overnight at 4° C. The following day, plates are washed again into PBS, 90 μL with 5 washes, all PBS is aspirated from the wells and the cells are incubated for 1 hr in 1:1000 goat-anti rabbit Alexa 488 secondary antibody, also containing 10 μg/mL Hoechst 33342. After the 1 hr RT incubation, plates are washed a final time into PBS, sealed with foil and imaged with an automated epifluorescence microscopy (PerkinElmer Operetta CLS). Four different fields were imaged per well using ×20 magnification for DAPI and FITC filter sets. Images were quantified using PerkinElmer Harmony software, briefly: apply flatfield correction (basic/advanced) for input images. Use the Find Nuclei building block with channel set at Hoechst to find the nuclei. Use the Find cytoplasm building block with channel set to Alexa 488 to find the cytoplasm. Use select cell region with Channel set at Alexa 488 and region of interest as Nuclei and define outer border at 0 μm and inner at 45 μm to cover complete nuclei. Use select cell region with Channel set at Alexa 488 and region of interest as ring region and define outer border at −5 μm and inner at 0 μm to define a ring around the nucleus. Use the find calculate intensity parameter to calculate intensity of the nuclear region and the ring region. Define results as Number of nuclei and ratio of A/B where A is Intensity of Nuclei and B is intensity of the ring region.

| EC50 | SMILES |
| --- | --- |
| ≥ 10 µM | CN1CCC2(C1)CN(S(=O)(=O)c1ccc(S(=O)(=O)N(C)C)cc1)c1ccccc12 (centres unmarked) [Compound I-90, N,N-dimethyl-4-({1′-methyl-1,2-dihydrospiro[indole-3,3′-pyrrolidin]-1-yl}sulfonyl)benzene-1-sulfonamide] |
| 2.01 to 8 µM | O=S(=O)(Cc1ccccc1)N1CC2(CCN(CC(F)(F)F)C2)c2ccccc21 (centres unmarked) [Compound I-120] |
| ≥ 10 µM | Cc1cccc(CS(=O)(=O)N2CC3(CCCC3)c3ccccc32)c1 [Compound I-16, 1′-[(3-methylphenyl)methanesulfonyl]-1′,2′-dihydrospiro[cyclopentane-1,3′-indole]] |
| ≤ 2 µM | O=S(=O)(Cc1ccccc1)N1CC2(CCCCC2)c2ccccc21 [Compound I-121, 1′-(benzylsulfonyl)spiro[cyclohexane-1,3′-indoline]] |
| 2.01 to 8 µM | Cc1ccc(F)c(CS(=O)(=O)N2CC3(CCCC3)c3ccccc32)c1 [Compound I-47, 1′-[(2-fluoro-5-methylphenyl)methanesulfonyl]-1′,2′-dihydrospiro[cyclopentane-1,3′-indole]] |
| 2.01 to 8 µM | CS(=O)(=O)c1ccc(S(=O)(=O)N2CC3(CCCC3)c3ccccc32)cc1F [Compound I-10, 1′-(3-fluoro-4-methanesulfonylbenzenesulfonyl)-1′,2′-dihydrospiro[cyclopentane-1,3′-indole]] |
| 2.01 to 8 µM | Cc1ccc(CS(=O)(=O)N2CC3(CCCC3)c3ccccc32)cc1C [Compound I-14, 1′-[(3,4-dimethylphenyl)methanesulfonyl]-1′,2′-dihydrospiro[cyclopentane-1,3′-indole]] |
| 2.01 to 8 µM | O=S(=O)(c1cccc(C2CC2(F)F)c1)N1CC2(CCCC2)c2ccccc21 (centres unmarked) [Compound I-49, 1′-[3-(2,2-difluorocyclopropyl)benzenesulfonyl]-1′,2′-dihydrospiro[cyclopentane-1,3′-indole]] |
| 2.01 to 8 µM | Cc1ccc(CS(=O)(=O)N2CC3(CCCC3)c3ccccc32)c(F)c1 [Compound I-44, 1′-[(2-fluoro-4-methylphenyl)methanesulfonyl]-1′,2′-dihydrospiro[cyclopentane-1,3′-indole]] |
| 8.01 to 9.99 µM | Cc1cccc(-n2cc(S(=O)(=O)N3CC4(CCCC4)c4ccccc43)cn2)c1 [Compound I-75, 1′-{[1-(3-methylphenyl)-1H-pyrazol-4-yl]sulfonyl}-1′,2′-dihydrospiro[cyclopentane-1,3′-indole]] |
| ≥ 10 µM | Cc1cc2n(n1)C1(CCCCC1)CN2S(=O)(=O)c1ccc(S(=N)(=O)N(C)C)cc1 (centres unmarked) [Compound I-146, N,N-dimethyl-4-({6′-methyl-1′,2′-dihydrospiro[cyclohexane-1,3′-pyrazolo[1,5-a]imidazol]-1′-yl}sulfonyl)benzene-1-sulfonoimidamide] |
| ≤ 2 µM | CN(C)S(=O)(=O)c1ccc(S(=O)(=O)N2CC3(CCCCC3)n3nc(C4CC4)cc32)cc1 [Compound I-257, 4-({6′-cyclopropyl-1′,2′-dihydrospiro[cyclohexane-1,3′-pyrazolo[1,5-a]imidazol]-1′-yl}sulfony1)-N,N-dimethylbenzene-1-sulfonamide] |
| ≤ 2 µM | CN(C)S(=O)(=O)c1ccc(S(=O)(=O)N2CCC3(CCCCC3)c3ccccc32)cc1 [Compound I-128, 4-({2′,3′-dihydro-1′H-spiro[cyclohexane-1,4′-quinolin]-1′-yl}sulfonyl)-N,N-dimethylbenzene-1-sulfonamide] |
| ≥ 10 µM | COC(=O)C(C)(C)c1ccc(S(=O)(=O)N2CC3(CCCC3)c3ccccc32)cc1 [Compound I-53, methyl 2-[4-({1′,2′-dihydrospiro[cyclopentane-1,3′-indol]-1′-yl}sulfonyl)phenyl]-2-methylpropanoate] |
| ≥ 10 µM | O=S(=O)(c1ccc(C2CC2)s1)N1CC2(CCCC2)c2ccccc21 [Compound I-33, 1′-[(5-cyclopropylthiophen-2-yl)sulfonyl]-1′,2′-dihydrospiro[cyclopentane-1,3′-indole]] |
| 8.01 to 9.99 µM | CC1(C)Cc2cc(S(=O)(=O)N3CC4(CCCC4)c4ccccc43)ccc2C1=O [Compound I-51, 5-({1′,2′-dihydrospiro[cyclopentane-1,3′-indol]-1′-yl}sulfonyl)-2,2-dimethyl-2,3-dihydro-1H-inden-1-one] |

| EC50 | SMILES |
| --- | --- |
| 2.01 to 8 µM | O=S(=O)(C1=Cc2ccccc2CC1)N1CC2(CCCC2)c2ccccc21 [Compound I-42, 1′-(3,4-dihydronaphthalene-2-sulfonyl)-1′,2′-dihydrospiro[cyclopentane-1,3′-indole]] |
| ≥ 10 µM | CC(CS(=O)(=O)N1CC2(CCCC2)c2ccccc21)c1ccccc1 (centres unmarked) [Compound I-117, 1′-(2-phenylpropanesulfonyl)-1′,2′-dihydrospiro[cyclopentane-1,3′-indole]] |
| ≤ 2 µM | CN(C)S(=O)(=O)c1ccc(S(=O)(=O)N2CC3(CCN(c4ccc(Cl)cc4F)CC3)c3ccccc32)cc1 [Compound I-106, 4-{[1′-(4-chloro-2-fluorophenyl)-1,2-dihydrospiro[indole-3,4′-piperidin]-1-yl]sulfonyl}-N,N-dimethylbenzene-1-sulfonamide] |
| ≥ 10 µM | CN(C)S(=O)(=O)c1ccc(S(=O)(=O)N2CC3(CCN(CC(F)(F)F)CC3)n3nccc32)cc1 [Compound I-144, N,N-dimethyl-4-{[1-(2,2,2-trifluoroethyl)-1′,2′-dihydrospiro[piperidine-4,3′-pyrazolo[1,5-a]imidazol]-1′-yl]sulfonyl}benzene-1-sulfonamide] |
| 2.01 to 8 µM | CN(C)S(=O)(=O)c1ccc(S(=O)(=O)N2CC3(CN(Cc4ccccc4)C3)c3ccccc32)cc1 [Compound I-102, 4-({1-benzyl-1′,2′-dihydrospiro[azetidine-3,3′-indol]-1′-yl}sulfonyl)-N,N-dimethylbenzene-1-sulfonamide] |
| 2.01 to 8 µM | CN(C)S(=O)(=O)c1ccc(S(=O)(=O)N2CC3(CCCC3)c3ncccc32)cc1 [Compound I-78, N,N-dimethyl-4-(spiro[cyclopentane-1,3′-pyrrolo[3,2-b]pyridin]-1′(2′H)-ylsulfonyl)benzenesulfonamide] |
| 8.01 to 9.99 µM | O=S(=O)(C1=Cc2ccccc2OC1)N1CC2(CCCC2)c2ccccc21 [Compound I-41, 1′-(2H-chromene-3-sulfonyl)-1′,2′-dihydrospiro[cyclopentane-1,3′-indole]] |
| ≥ 10 µM | O=S(=O)([C@H]1C[C@@H]1c1cccc(F)c1)N1CC2(CCCC2)c2ccccc21 [Compound I-24, 1′{[(1S,2R)-2-(3-fluorophenyl)cyclopropyl]sulfonyl}-1′,2′-dihydrospiro[cyclopentane-1,3′-indole]] |
| ≥ 10 µM | CS(=O)(=O)Nc1ccc(S(=O)(=O)N2CC3(CCCC3)c3ccccc32)cc1 [Compound I-63, N-[4-({1′,2′-dihydrospiro[cyclopentane-1,3′-indol]-1′-yl}sulfonyl)phenyl]methanesulfonamide] |
| 2.01 to 8 µM | CC(C)C(=O)c1ccc(S(=O)(=O)N2CC3(CCCC3)c3ccccc32)cc1 [Compound I-3, 1-[4-({1′,2′-dihydrospiro[cyclopentane-1,3′-indol]-1′-yl}sulfonyl)phenyl]-2-methylpropan-1-one] |
| ≥ 10 µM | O=S(=O)(c1ccc(OC(F)F)c(F)c1)N1CC2(CCCC2)c2ccccc21 [Compound I-23, 1′-[4-(difluoromethoxy)-3-fluorobenzenesulfonyl]-1′,2′-dihydrospiro[cyclopentane-1,3′-indole]] |
| ≥ 10 µM | O=S(=O)(c1ccc(C(F)F)cc1)N1CC2(CCCC2)c2ccccc21 [Compound I-28, 1′-[4-(difluoromethyl)benzenesulfonyl]-1′,2′-dihydrospiro[cyclopentane-1,3′-indole]] |
| 2.01 to 8 µM | CN(C)S(=O)(=O)c1ccc(S(=O)(=O)N2CC3(CCN(CC4CCOCC4)C3)c3ccccc32)cc1 (centres unmarked) [Compound I-96, N,N-dimethyl-4-({1′-[(oxan-4-yl)methyl]-1,2-dihydrospiro[indole-3,3′-pyrrolidin]-1-yl}sulfonyl)benzene-1-sulfonamide] |
| ≥ 10 µM | CN(C)S(=O)(=O)c1ccc(S(=O)(=O)N2CC3(CCCC3)c3cccnc32)cc1 [Compound I-71, 4-({1′,2′-dihydrospiro[cyclopentane-1,3′-pyrrolo[2,3-b]pyridin]-1′-yl}sulfonyl)-N,N-dimethylbenzene-1-sulfonamide] |
| ≥ 10 µM | COC1Cc2ccc(S(=O)(=O)N3CC4(CCCC4)c4ccccc43)cc2C1 (centres unmarked) [Compound I-8, 1′-[(2-methoxy-2,3-dihydro-1H-inden-5-yl)sulfonyl]-1′,2′-dihydrospiro[cyclopentane-1,3′-indole]] |

| SMILES | EC50 |
| --- | --- |
| O=S(=O)(Cc1ccccc1)N1CC2(CCN(CC(F)(F)F)CC2)c2ccccc21 [Compound I-85, 1-phenylmethanesulfonyl-1′-(2,2,2-trifluoroethyl)-1,2-dihydrospiro[indole-3,4′-piperidine]] | ≥ 10 µM |
